Data: the METLIN SMRT retention time set (Domingo-Almenara et al. 2019)

Experiment: gradient 5% acetonitrile 3 min, to 50% in 2 min, to 85% in 15 min, held 3 min, 100 µL/min
Conditions: column: Zorbax Extend-C18 2.1 x 50 mm; eluents: water / acetonitrile, 0.1% formic acid
In short: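 In both positive and negative ionization mode, a quadrupole time-of-flight mass spectrometer coupled to HPLC analyzed pure standards run in mixtures of ~100 molecules. The Zorbax Extend-C18 column (2.1 × 50 mm, 1.8 μm) was operated at 100 μL/min with water and acetonitrile, each containing 0.1% formic acid. The dead volume was 40 μL and the dwell volume 900 μL. Retention time came from adduct peaks that were computationally picked and individually inspected by hand.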

Row | Compound | RP-LC retention time
1 | O=C(NCc1cccs1)C1CCCN(c2nc3ccsc3c(=O)n2-c2ccccc2)C1 (configuration not stated) | 816 s
2 | C/C=C1/C(=O)C[C@H]2[C@@H]3CCC4=CC(=O)CC[C@]4(C)[C@H]3CC[C@]12C | 1100 s
3 | CCC(C(=O)Nc1ccc(OC)c(OC)c1)n1cnc2nc3c(cc2c1=O)CCCC3 (configuration not stated) | 720 s
4 | COc1ccccc1C(=O)Nc1nnc(SCc2ccc(Br)cc2)s1 | 1140 s
5 | CCc1cc(=O)n(CC(=O)Nc2ccc(Cl)cc2)c(N)n1 | 618 s
6 | O=C(Nc1ccc2c(c1)OCO2)C1CC(=O)N(CCc2c[nH]c3ccc(Cl)cc23)C1 (configuration not stated) | 801 s
7 | CCC(C(=O)NCCc1c[nH]c2ccccc12)n1nc(C)c2nn(-c3ccccc3)c(C)c2c1=O (configuration not stated) | 932 s
8 | O=C(NCc1ccccc1)N1CCC(OCc2nc(C3CC3)no2)CC1 | 776 s
9 | Cc1ccc(NC(=O)N2CCCC(C)(C(=O)NCc3ccccc3C)C2)cc1 (configuration not stated) | 942 s
10 | O=C(Nc1nccs1)c1ccc2c(c1)CCCC2 | 869 s
11 | CCCNC(=O)C1CCCN(c2nc3ncn(CC(=O)Nc4c(C)cccc4CC)c(=O)c3s2)C1 (configuration not stated) | 727 s
12 | Cc1[nH]c(C)c(S(=O)(=O)N2CCC(C(=O)N3CCC(C)CC3)CC2)c1C(=O)N1CCCCC1 | 760 s
13 | COC(=O)C1C(=O)C2=C(CC1C)NC(=O)CC2c1cccc(Cl)c1 (configuration not stated) | 773 s
14 | COC(=O)c1ccc(Cl)cc1NC(=O)c1cc2ccccc2o1 | 1280 s
15 | CC1CCN(C(=O)C2CCN(S(C)(=O)=O)c3ccccc3O2)CC1 (configuration not stated) | 802 s
16 | Cn1c(=O)n(CC(N)=O)c(=O)c2c1nc1n2CCCN1C1CCCCC1 | 657 s
17 | CC(=O)N1CCc2sc(S(=O)(=O)N3CCN(c4cc(C)ccc4C)CC3)cc2C1 | 1010 s
18 | Cc1cc2ncn(S(=O)(=O)N3CCCC3)c2cc1C | 837 s
19 | CC(CCc1ccccc1)NC(=O)c1cc2n(n1)CC(C)(C(=O)NC1CCCC1)N(C)C2=O (configuration not stated) | 844 s
20 | O=C(NCc1ccc2c(c1)OCO2)C1CCCN(c2ncc(-c3ccc(F)cc3)cn2)C1 (configuration not stated) | 998 s
21 | Fc1ccc(-c2ccnc3nc(-c4ccccc4)nn23)cc1 | 949 s
22 | Cn1cc(CN2CCC(C(=O)NC3CCCCC3)CC2)c2cc(Cl)ccc21 | 702 s

Row | Compound | RP-LC retention time
23 | CC(C)N1C(=O)Cc2ccccc2C1C(=O)N1CCN(c2ccccc2)CC1 (configuration not stated) | 855 s
24 | CN(C)C[C@@H]1CN(c2ncccn2)C[C@H]1NS(=O)(=O)Cc1ccccc1 | 601 s
25 | COc1ccc(N2CC(c3noc(-c4cccc(Cl)c4)n3)CC2=O)cc1 (configuration not stated) | 1030 s
26 | O=C(Nc1ccc2cn[nH]c2c1)C1CN(c2nc3ccccc3s2)C1 | 630 s
27 | Cc1ccsc1C(=O)N1CCC(Nc2ncnc3c2CCC3)CC1 | 778 s
28 | Cc1ccc(CN2C(=O)CC(N3CCCCC3)C2=O)cc1 (configuration not stated) | 580 s
29 | CCOc1ccc(-c2noc(Cn3cnc4c(oc5ccccc54)c3=O)n2)cc1OC | 916 s
30 | O=c1cc(-c2cc3c(ccc4ccccc43)oc2=O)c2ccc(O)cc2o1 | 875 s
31 | O=C(C1=CN(c2cccc(Cl)c2)c2cc(F)ccc2S1(=O)=O)N1CCCC1 | 868 s
32 | CCn1c(C(=O)Nc2ccc(C)cc2C)cc2sc(Cl)cc21 | 1240 s
33 | CCc1ccc(CNC(=O)c2cc3n(n2)CC(C)(C(=O)NC2CCCC2)N(C)C3=O)cc1 (configuration not stated) | 812 s
34 | COc1cccc(CN2CC[C@@H]3CN(S(C)(=O)=O)[C@@H]3C2)c1OC | 604 s
35 | CC(C)n1nnc2ccc(-c3noc(CNC(=O)c4ccccc4)n3)cc21 | 825 s
36 | Cc1ccc(OCC(=O)Nc2cc3c(cc2N(C)C)n(C)c(=O)c(=O)n3C)c(C)c1 | 962 s
37 | O=C(Cc1cc(-c2ccc(F)cc2)on1)NCCc1c[nH]c2ccccc12 | 824 s
38 | Cc1ccc(CN2CCN(CC(C)C(=O)NCc3cc(F)ccc3F)C(=O)C2=O)cc1 (configuration not stated) | 765 s
39 | Cc1cccc(NC(=O)N2CCC(n3cnc4ccc(C)cc4c3=O)CC2)c1 | 836 s
40 | O=C(NCCc1nc2cccnc2n1-c1ccccc1)c1ccsc1 | 674 s
41 | CCc1nnc(-c2cn(CC(=O)Nc3ccc(F)c(F)c3)c3ccccc23)o1 | 888 s
42 | CCS(=O)(=O)N1CCCN(C(=O)NC(C)(C)C)CC1 | 663 s
43 | CC(=O)N1CCCC1CCc1ncc(C)n1C(C)C (configuration not stated) | 577 s
44 | COc1ccc(NC(C)=O)cc1NC(=O)C1CC(=O)N(c2n[nH]c3cccc(F)c23)C1 (configuration not stated) | 634 s

Row | Compound | RP-LC retention time
45 | O=C(NCCCN1CCN(c2ccc(F)cc2)CC1)C1CCCN(c2nc3cccnc3s2)C1 (configuration not stated) | 645 s
46 | CCOc1ccc(C(=O)N2CCc3c(c(-c4nc(C5CC5)no4)nn3C)C2)cc1 | 837 s
47 | CCOC(=O)C1=C(CN2CCC(c3ccccc3)C2)NC(=O)NC1c1cccc(OC)c1OC (configuration not stated) | 687 s
48 | COc1cccc(-c2nnc(SCC(=O)NCc3ccco3)n2-c2ccccc2)c1 | 739 s
49 | Cc1ccc(NC(=O)COc2cc(C(F)(F)F)c3c(C)nn(C)c3n2)c(C)c1 | 1060 s
50 | CCOc1ccccc1-n1nnc(C(=O)OCc2nc(-c3ccccc3)oc2C)c1C | 1090 s
51 | CCOC(=O)CC1C(=O)NCCN1C(=O)COc1ccc(Br)cc1C (configuration not stated) | 797 s
52 | COc1ccc(S(=O)(=O)NCc2ccc3c(c2)CCN3C(=O)c2ccccc2)cc1 | 904 s
53 | CCN1C(=O)COc2ccc(-c3csc(NC(=O)c4ccc(C)cc4)n3)cc21 | 1040 s
54 | Cn1nc(C(=O)N2CCCCC2)c2c1CCN(C(=O)CCC(=O)NC1CCCCC1)C2 | 681 s
55 | COc1cc2oc(=O)c(CC(=O)N3CCN(c4ccccn4)CC3)c(C)c2cc1OC | 588 s
56 | O=C(c1ccsc1)N1CCN(Cc2ccc(=O)n(CC3CC3)c2)CC1 | 543 s
57 | Cc1ccc(S(=O)(=O)N2CC3CN(C(=O)C4COc5ccccc5O4)CC(C2)O3)cc1 (configuration not stated) | 928 s
58 | Cc1cccc(S(=O)(=O)Nc2cccc(-c3cn4ccccc4n3)c2)c1 | 644 s
59 | Cc1nc(-n2cccc2)sc1C(=O)NCCN(C)C | 547 s
60 | Cc1nc(N2CCCC2)c2c(C(=O)Nc3cccc(C)c3C)c(C)oc2n1 | 756 s
61 | O=C(Nc1ccccc1)N[C@H]1C[C@H](C(=O)O)Nc2cc(Cl)cc(Cl)c21 | 799 s
62 | CCc1ccc(NC(=O)C2CCN(S(=O)(=O)c3cn(C)cn3)CC2)cc1 | 734 s
63 | CCc1cc(-c2csc(S(=O)(=O)N3CCN(C4CCCCC4)CC3)c2)on1 | 723 s
64 | COc1ccc(CCNC(=O)C2CCCN(c3ccc(-c4ccco4)nn3)C2)cc1OC (configuration not stated) | 618 s
65 | Cc1cccc(C2CC(=O)c3cnc(N4CCN(c5ccccn5)CC4)nc3C2)c1 (configuration not stated) | 737 s
66 | O=S(=O)(c1ccc2c(c1)CCC2)N1CCCn2nc(-c3ccncc3)cc2C1 | 687 s

Row | Compound | RP-LC retention time
67 | Cc1ccc(-c2noc(CN3N=NC4C(=O)N(c5ccc(F)cc5)C(=O)C43)n2)cc1 (configuration not stated) | 1020 s
68 | COc1ccc(-c2nc(-c3ccc4c(c3)ncn4CCN3CCCCC3)no2)cc1 | 658 s
69 | COC(=O)c1cc(S(=O)(=O)N2CCCC2C(=O)Nc2cc(C)ccc2C)cn1C (configuration not stated) | 901 s
70 | CCOc1ccccc1NC(=O)C1CCN(S(=O)(=O)c2ccc3c(c2)NC(=O)C(CC)O3)CC1 (configuration not stated) | 953 s
71 | COc1ccccc1CNC(=O)CCc1nnc2c3cc(-c4ccccc4)nn3ccn12 | 750 s
72 | CCCN1C(=O)COc2ccc(-c3csc(NC(=O)C4CC4)n3)cc21 | 879 s
73 | CCOCCCNC(=O)C1CCN(C2=NS(=O)(=O)C(c3ccc(CC)cc3)=C2C)CC1 | 810 s
74 | CCc1ccc(C(C)NS(=O)(=O)c2cc3c(s2)CCN(C(=O)C2CCC2)C3)cc1 (configuration not stated) | 1020 s
75 | CC1CCCN(CCCNC(=O)CCCn2c(=O)c3cccn3c3ccc(Br)cc32)C1 (configuration not stated) | 677 s
76 | Cc1ccnc(N2CCCC(C(=O)NCC3CCN(Cc4cccc(F)c4)CC3)C2)n1 (configuration not stated) | 579 s
77 | COc1ccc(Cl)cc1NC(=O)N1CCC(c2cc(N)on2)CC1 | 760 s
78 | O=C(Cc1csc2nc(-c3ccccc3)cn12)Nc1ccc(Cl)cc1F | 881 s
79 | CCCCNC(=O)Cc1c(C)nn(-c2nc(-c3ccc(F)cc3)cs2)c1C | 1070 s
80 | CNC(=O)C1CCCN(c2nc3ncn(CC(=O)NCc4ccccc4)c(=O)c3s2)C1 (configuration not stated) | 620 s
81 | Cn1cc2c3c(cccc31)CN(C(=O)c1cc(F)ccc1Cl)CC2 | 938 s
82 | CCNC(=O)C1CCN(C(=O)Nc2ccc(NC(=O)Nc3ccc(C)cc3C)cc2)CC1 | 729 s
83 | Cc1cc(C)cc(C(=O)N2C[C@@H]3C[C@H](NC(=O)c4cccnc4)[C@H]2C3)c1 | 658 s
84 | CC(C)N(CC[C@H](c1ccccc1)c1cc(CO)ccc1O)C(C)C | 678 s
85 | Cn1c(=O)n(C)c2cc(CNCCc3ccc(Cl)cc3)ccc21 | 630 s
86 | COc1ccc(C(O)Cn2ccn3nc(-c4ccc(C(C)C)cc4)cc3c2=O)cc1 (configuration not stated) | 1060 s
87 | CC1CCN(c2nc3c(c(=O)n(Cc4ccccc4F)c(=O)n3C)n2C)CC1 | 1130 s
